From patent US20260224588A1, “BENZODIAZEPINONE-DERIVED INHIBITORS OF EGFR AND HER2” (The Research Foundation for the State University of New York, priority 2023, published 2026)

Key:
Experiment in all cases: KINOMEscan
Type in all cases: binding
Conditions in all cases: 1 μM of compound 4; read-out: POC
PIM2 = PIM2 (Homo sapiens, UniProt Q9P1W9)
HUNK = HUNK (Homo sapiens, UniProt P57058)
CSNK1E = CSNK1E (Homo sapiens, UniProt P49674)
CAMK1 = CAMK1 (Homo sapiens, UniProt Q14012)
MEK2 = MEK2 (Homo sapiens, UniProt P36507)
TRPM6 = target: T1, TRPM6 (Homo sapiens, UniProt Q9BX84)
T1 construct: purchased Eurofins DiscoverX Corporation

MRCKA = MRCKA (Homo sapiens, UniProt Q5VT25)
EPHA6 = target: T2, EPHA6 (Homo sapiens, UniProt Q9UF33)
T2 construct: purchased Eurofins DiscoverX (KINOMEscan service)

ZAP70 = target: T3, ZAP70 (Homo sapiens, UniProt P43403)
T3 construct: purchased Eurofins DiscoverX

DDR1 = DDR1 (Homo sapiens, UniProt Q08345)
EPHB6 = target: T4, EPHB6 (Homo sapiens, UniProt O15197)
T4 construct: purchased Eurofins DiscoverX (KINOMEscan service)

ALK(C1156Y) = ALK(C1156Y) (Homo sapiens, UniProt Q9UM73, C1156Y)
NEK6 = NEK6 (Homo sapiens, UniProt Q9HC98)
CSNK1A1 = CSNK1A1 (Homo sapiens, UniProt P48729)
p38-beta = target: T5, p38-beta (Homo sapiens, UniProt Q15759)
T5 construct: purchased Eurofins DiscoverX Corporation (KINOMEscan)

ACVR2B = ACVR2B (Homo sapiens, UniProt Q13705)
FLT1 = target: T6, FLT1 (Homo sapiens, UniProt P17948)
T6 construct: purchased Eurofins DiscoverX Corporation

WEE1 = target: T7, WEE1 (Homo sapiens, UniProt P30291)
T7 construct: purchased Eurofins DiscoverX

CAMKK1 = CAMKK1 (Homo sapiens, UniProt Q8N5S9)
CSNK1D = CSNK1D (Homo sapiens, UniProt P48730)
PIK3CA(E545K) = PIK3CA(E545K) (Homo sapiens, UniProt P42336, E545K)
KIT(V559D + V654A) = KIT(V559D + V654A) (Homo sapiens, UniProt P10721, V559D/V654A)
GSK3A = target: T8, GSK3A (Homo sapiens, UniProt P49840)
T8 construct: purchased Eurofins DiscoverX Corporation

ERN1 = target: T9, ERN1 (Homo sapiens, UniProt O75460)
T9 construct: purchased Eurofins DiscoverX Corporation

CDKL2 = CDKL2 (Homo sapiens, UniProt Q92772)
LIMK2 = LIMK2 (Homo sapiens, UniProt P53671)
CAMK2A = CAMK2A (Homo sapiens, UniProt Q9UQM7)
DCAMKL1 = DCAMKL1 (Homo sapiens, UniProt O15075)
TNK1 = target: T10, TNK1 (Homo sapiens, UniProt Q13470)
T10 construct: purchased Eurofins DiscoverX Corporation

[1] = target: T11, ABL1(F317L)-phosphorylated (Homo sapiens, UniProt P00519, F317L)
T11 construct: purchased Eurofins DiscoverX Corporation

SIK2 = target: T12, SIK2 (Homo sapiens, UniProt Q9H0K1)
T12 construct: purchased Eurofins DiscoverX (KINOMEscan service)

STK36 = target: T13, STK36 (Homo sapiens, UniProt Q9NRP7)
T13 construct: purchased Eurofins DiscoverX (KINOMEscan service)

CAMK2G = CAMK2G (Homo sapiens, UniProt Q13555)
DAPK3 = DAPK3 (Homo sapiens, UniProt O43293)
BMPR1B = BMPR1B (Homo sapiens, UniProt O00238)
ASK1 = ASK1 (Homo sapiens, UniProt Q99683)
MAP4K4 = MAP4K4 (Homo sapiens, UniProt O95819)
LATS1 = LATS1 (Homo sapiens, UniProt O95835)
NEK1 = NEK1 (Homo sapiens, UniProt Q96PY6)
FER = target: T14, FER (Homo sapiens, UniProt P16591)
T14 construct: purchased Eurofins DiscoverX Corporation

Sequence of LIMK2 (P53671 whole entry): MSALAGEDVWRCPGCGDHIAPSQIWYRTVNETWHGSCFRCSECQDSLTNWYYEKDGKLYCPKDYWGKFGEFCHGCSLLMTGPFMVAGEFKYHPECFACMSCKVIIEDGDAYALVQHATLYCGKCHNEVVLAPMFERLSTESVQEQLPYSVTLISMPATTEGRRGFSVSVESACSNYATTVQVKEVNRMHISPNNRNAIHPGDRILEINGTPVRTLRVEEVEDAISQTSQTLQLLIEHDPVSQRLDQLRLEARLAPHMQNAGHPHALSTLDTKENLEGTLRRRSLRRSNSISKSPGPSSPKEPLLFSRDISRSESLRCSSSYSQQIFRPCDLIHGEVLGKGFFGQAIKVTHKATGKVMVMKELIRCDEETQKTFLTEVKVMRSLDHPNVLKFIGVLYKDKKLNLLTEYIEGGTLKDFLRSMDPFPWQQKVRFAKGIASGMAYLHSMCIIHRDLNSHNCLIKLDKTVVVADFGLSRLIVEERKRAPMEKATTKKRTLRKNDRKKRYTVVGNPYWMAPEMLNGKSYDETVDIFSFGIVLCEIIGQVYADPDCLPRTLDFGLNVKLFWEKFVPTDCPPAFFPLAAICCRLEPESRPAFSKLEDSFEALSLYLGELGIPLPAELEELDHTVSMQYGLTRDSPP
Sequence of ASK1 (Q99683 whole entry): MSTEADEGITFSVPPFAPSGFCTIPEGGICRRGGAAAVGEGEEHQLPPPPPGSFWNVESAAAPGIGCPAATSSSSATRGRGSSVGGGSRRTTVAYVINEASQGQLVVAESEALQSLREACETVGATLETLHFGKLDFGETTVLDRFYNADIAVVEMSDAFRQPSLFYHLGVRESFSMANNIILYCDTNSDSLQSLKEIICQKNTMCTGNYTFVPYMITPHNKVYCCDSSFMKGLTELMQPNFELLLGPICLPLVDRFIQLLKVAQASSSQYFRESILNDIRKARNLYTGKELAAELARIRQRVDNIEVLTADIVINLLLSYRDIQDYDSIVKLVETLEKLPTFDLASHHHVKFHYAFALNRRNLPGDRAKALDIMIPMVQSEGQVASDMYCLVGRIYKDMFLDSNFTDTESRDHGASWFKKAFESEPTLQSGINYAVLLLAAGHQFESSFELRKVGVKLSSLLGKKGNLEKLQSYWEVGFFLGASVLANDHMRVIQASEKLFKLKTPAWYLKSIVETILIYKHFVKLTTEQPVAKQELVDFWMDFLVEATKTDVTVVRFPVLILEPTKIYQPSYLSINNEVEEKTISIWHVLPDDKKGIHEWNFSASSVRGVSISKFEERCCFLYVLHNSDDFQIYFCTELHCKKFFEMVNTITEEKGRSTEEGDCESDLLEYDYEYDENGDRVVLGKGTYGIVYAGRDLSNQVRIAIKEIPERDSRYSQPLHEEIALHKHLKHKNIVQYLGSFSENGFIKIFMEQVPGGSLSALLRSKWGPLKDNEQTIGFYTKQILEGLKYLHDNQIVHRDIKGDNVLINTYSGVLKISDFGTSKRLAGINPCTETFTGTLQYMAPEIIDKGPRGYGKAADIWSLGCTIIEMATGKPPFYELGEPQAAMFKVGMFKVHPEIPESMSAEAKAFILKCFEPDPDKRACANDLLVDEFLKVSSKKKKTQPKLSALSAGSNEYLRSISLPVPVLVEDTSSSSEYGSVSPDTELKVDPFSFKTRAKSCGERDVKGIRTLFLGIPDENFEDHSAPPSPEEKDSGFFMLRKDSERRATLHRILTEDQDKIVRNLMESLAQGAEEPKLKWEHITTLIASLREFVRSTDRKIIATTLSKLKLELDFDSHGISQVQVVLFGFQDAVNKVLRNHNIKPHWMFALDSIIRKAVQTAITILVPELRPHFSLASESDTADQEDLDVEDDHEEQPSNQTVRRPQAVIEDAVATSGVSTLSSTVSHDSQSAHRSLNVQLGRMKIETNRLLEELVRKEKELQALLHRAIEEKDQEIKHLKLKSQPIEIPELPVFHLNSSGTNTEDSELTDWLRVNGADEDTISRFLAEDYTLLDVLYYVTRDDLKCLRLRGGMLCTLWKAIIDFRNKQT
Sequence of DCAMKL1 (O15075 whole entry): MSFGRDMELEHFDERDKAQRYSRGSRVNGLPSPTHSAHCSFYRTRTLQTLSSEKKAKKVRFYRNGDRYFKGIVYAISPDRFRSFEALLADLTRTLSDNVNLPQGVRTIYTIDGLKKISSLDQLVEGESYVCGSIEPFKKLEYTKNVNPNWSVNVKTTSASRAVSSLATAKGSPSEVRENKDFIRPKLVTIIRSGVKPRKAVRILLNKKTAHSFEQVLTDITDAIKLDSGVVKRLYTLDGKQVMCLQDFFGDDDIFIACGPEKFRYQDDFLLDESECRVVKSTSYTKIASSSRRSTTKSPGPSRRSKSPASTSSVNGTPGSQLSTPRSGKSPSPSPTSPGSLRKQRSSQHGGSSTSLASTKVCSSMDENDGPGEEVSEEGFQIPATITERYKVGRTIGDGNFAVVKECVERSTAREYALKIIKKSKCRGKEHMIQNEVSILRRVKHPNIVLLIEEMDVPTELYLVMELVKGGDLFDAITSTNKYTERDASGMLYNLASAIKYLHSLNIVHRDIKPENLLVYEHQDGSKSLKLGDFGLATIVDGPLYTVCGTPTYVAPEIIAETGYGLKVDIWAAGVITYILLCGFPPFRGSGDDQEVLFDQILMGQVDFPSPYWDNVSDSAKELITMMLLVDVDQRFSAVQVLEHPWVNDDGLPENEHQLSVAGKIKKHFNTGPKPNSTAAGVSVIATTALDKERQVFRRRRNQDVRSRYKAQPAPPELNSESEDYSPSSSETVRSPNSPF
T11 sequence (P00519 whole entry F317L): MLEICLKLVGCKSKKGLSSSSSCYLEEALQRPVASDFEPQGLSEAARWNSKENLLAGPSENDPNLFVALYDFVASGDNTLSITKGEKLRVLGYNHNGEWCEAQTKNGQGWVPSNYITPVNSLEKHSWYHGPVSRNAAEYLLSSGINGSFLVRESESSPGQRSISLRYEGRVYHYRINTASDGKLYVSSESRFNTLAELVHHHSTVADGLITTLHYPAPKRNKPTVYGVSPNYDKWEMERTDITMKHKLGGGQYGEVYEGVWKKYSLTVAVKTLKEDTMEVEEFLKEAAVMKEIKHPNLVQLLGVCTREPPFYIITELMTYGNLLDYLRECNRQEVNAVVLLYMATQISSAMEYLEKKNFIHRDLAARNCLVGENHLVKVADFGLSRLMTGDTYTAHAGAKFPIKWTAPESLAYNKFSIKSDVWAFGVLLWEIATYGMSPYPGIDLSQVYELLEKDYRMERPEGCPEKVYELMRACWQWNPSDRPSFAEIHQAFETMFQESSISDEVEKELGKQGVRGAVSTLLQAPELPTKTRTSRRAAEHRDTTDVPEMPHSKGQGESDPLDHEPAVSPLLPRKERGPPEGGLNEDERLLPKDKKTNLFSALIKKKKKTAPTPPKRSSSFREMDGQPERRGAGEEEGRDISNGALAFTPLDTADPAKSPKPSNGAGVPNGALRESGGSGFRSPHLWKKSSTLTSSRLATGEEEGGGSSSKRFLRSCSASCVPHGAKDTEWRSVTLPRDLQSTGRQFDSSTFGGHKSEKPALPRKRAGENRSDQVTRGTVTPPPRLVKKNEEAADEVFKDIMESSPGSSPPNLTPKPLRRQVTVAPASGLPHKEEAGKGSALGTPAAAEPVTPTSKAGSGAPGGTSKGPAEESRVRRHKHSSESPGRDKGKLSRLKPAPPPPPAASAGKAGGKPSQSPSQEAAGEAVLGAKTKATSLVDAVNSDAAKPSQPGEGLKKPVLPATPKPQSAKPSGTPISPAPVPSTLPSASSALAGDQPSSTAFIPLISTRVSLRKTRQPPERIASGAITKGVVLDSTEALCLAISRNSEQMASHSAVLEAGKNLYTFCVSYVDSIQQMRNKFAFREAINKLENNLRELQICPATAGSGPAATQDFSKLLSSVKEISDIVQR
T8 sequence (P49840 whole entry): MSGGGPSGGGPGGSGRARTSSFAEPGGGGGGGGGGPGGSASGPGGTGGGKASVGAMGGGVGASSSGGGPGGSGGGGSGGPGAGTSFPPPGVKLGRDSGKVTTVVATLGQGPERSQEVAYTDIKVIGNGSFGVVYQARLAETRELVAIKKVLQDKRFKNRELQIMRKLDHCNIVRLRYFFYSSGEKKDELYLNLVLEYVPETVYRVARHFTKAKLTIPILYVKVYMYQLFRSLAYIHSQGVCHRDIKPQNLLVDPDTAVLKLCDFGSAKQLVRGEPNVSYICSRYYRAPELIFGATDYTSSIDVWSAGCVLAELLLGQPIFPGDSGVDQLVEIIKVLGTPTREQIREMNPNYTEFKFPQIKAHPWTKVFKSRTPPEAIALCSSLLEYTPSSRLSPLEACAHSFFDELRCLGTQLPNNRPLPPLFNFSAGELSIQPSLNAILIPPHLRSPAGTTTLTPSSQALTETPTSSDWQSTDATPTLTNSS
T3 sequence (P43403 whole entry): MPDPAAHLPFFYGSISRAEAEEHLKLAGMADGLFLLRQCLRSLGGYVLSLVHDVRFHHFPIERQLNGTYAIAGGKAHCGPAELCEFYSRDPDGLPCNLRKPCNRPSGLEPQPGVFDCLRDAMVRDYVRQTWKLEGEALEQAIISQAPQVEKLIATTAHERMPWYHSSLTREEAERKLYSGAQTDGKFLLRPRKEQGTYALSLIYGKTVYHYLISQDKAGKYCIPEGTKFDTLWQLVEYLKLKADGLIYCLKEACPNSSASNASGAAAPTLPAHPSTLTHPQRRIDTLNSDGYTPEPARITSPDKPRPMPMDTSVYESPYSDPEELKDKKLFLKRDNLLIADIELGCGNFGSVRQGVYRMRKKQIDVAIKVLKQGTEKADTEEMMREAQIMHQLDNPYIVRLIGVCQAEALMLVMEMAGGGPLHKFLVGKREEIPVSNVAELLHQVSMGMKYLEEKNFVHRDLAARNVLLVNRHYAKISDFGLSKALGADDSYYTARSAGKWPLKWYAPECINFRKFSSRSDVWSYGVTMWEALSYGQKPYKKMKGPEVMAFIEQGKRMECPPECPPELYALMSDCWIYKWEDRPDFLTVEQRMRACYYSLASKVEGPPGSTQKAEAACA

C=CC(=O)Nc1ccc(OC)c(Nc2cc(-c3[nH]c(CC)nc3-c3cccc(NC(=O)c4cccc5c4NC(=O)c4ccccc4N5)c3)ccn2)c1 [Compound 4, N-(3-(5-(2-((5-Acrylamido-2-methoxyphenyl)amino)pyridin-4-yl)-2-ethyl-1H-imidazol-4-yl)phenyl)-11-oxo-10,11-dihydro-5H-dibenzo[b,e][1,4]diazepine-9-carboxamide]
remaining binding at 1 µM (PIM2): 88% | remaining binding at 1 µM (HUNK): 32% | remaining binding at 1 µM (CSNK1E): 88% | remaining binding at 1 µM (CAMK1): 81% | remaining binding at 1 µM (MEK2): 100% | remaining binding at 1 µM (TRPM6): 99% | remaining binding at 1 µM (MRCKA): 0% | remaining binding at 1 µM (EPHA6): 90% | remaining binding at 1 µM (ZAP70): 97% | remaining binding at 1 µM (DDR1): 90% | remaining binding at 1 µM (EPHB6): 100% | remaining binding at 1 µM (ALK(C1156Y)): 87% | remaining binding at 1 µM (NEK6): 100% | remaining binding at 1 µM (CSNK1A1): 56% | remaining binding at 1 µM (p38-beta): 59% | remaining binding at 1 µM (ACVR2B): 72% | remaining binding at 1 µM (FLT1): 100% | remaining binding at 1 µM (WEE1): 85% | remaining binding at 1 µM (CAMKK1): 85% | remaining binding at 1 µM (CSNK1D): 87% | remaining binding at 1 µM (PIK3CA(E545K)): 100% | remaining binding at 1 µM (KIT(V559D + V654A)): 93% | remaining binding at 1 µM (GSK3A): 65% | remaining binding at 1 µM (ERN1): 74% | remaining binding at 1 µM (CDKL2): 100% | remaining binding at 1 µM (LIMK2): 93% | remaining binding at 1 µM (CAMK2A): 65% | remaining binding at 1 µM (DCAMKL1): 100% | remaining binding at 1 µM (TNK1): 22% | remaining binding at 1 µM [1]: 85% | remaining binding at 1 µM (SIK2): 100% | remaining binding at 1 µM (STK36): 30% | remaining binding at 1 µM (CAMK2G): 100% | remaining binding at 1 µM (DAPK3): 62% | remaining binding at 1 µM (BMPR1B): 100% | remaining binding at 1 µM (ASK1): 100% | remaining binding at 1 µM (MAP4K4): 6.1% | remaining binding at 1 µM (LATS1): 100% | remaining binding at 1 µM (NEK1): 90% | remaining binding at 1 µM (FER): 36%
